Entries after “also recorded” stand apart in the source; their conditions may differ.
How the values were obtained:
mixed iENs/iGNs = test: Spontaneous PSC recording from iGNs in mixed iENs/iGNs co-culture; type: cell-based, human; conditions: 56 dpt, -70 mV; after bicuculline
Procedure: (§1) Whole cell patch clamp recordings were performed on iGNs and iENs with voltage or current clamp mode. Recording pipettes with resistances of 4-6 MΩ were filled with an internal solution containing (in mM): 120 K-gluconate, 9 KCl, 10 KOH, 3.48 MgCl2, 4 NaCl, 10 HEPES, 4 Na2ATP, 0.4 Na3GTP, 17.5 Sucrose, 0.5 EGTA with an osmolarity of 290 mOsm and pH 7.3. Neurons were bathed in the extracellular solution containing (in mM): 124 NaCl, 3 KCl, 1.3 NaH2PO4, 10 dextrose, 2 MgCl2, 2 CaCl2, 10 HEPES at pH 7.4. Bicuculline (20 μM, Tocris) and CNQX (50 μM, Tocris) were used to block inhibitory or excitatory synaptic responses, respectively. Neurons were held at −70 mV except otherwise indicated or at required currents using an Axon MultiClamp 700B amplifier (Axon Instruments). Signal was sampled at 40 kHz and filtered at 2 kHz (Digidata 1440A, Molecular Devices). Recordings with serial resistance higher than 20 MO or leaking current more than 200 pA were not analyzed. Data were analyzed offline using the ClampFit (Molecular Devices) or MiniAnalysis (Synaptosoft). […] The reversal potential for ions was −49 mV in our recording system, calculated using the simplified Nernst equation: E(Cl^−)=−59*log(extracellular[Cl^−]/intracellular[Cl^−]),(T=25° C.). Spontaneous action potentials were recorded at I=0 mode. […]

[1] = test system: transplanted human iGNs in acute cortical slices; test: Slice recording of sEPSCs from human iGNs transplanted into mouse cortex; type: cell-based; conditions: CNQX 50 μM; -70 mV voltage clamp
Procedure: P1 NSG pups were anesthetized on ice for 1-2 minutes before being secured with tape onto a prechilled ice block. Human iGNs were priorly labeled with RFP as described, and trypsinized to single cells at 8 dpt. Concentrated cell suspensions (˜2.5-5×10^4 cells/μl) were front loaded into a microliter syringe (26s gauge, Hamilton Company) and injected (200 nl, 250 nl/min) bilaterally to a depth of 0.2 mm near the centre of the anterior/posterior axis and 1 mm away from the midline.
After isofluorane anesthesia, brains were quickly cut out and 300-μm coronal slices were sectioned using vibrating microtome (VF-200 Microtome, Precisionary Instruments). Slices were incubated at 30° C. in artificial cerebrospinal fluid (ACSF) containing (in mM): 125 NaCl, 2.5 KCl, 1.25 NaH2PO4, 2 CaCl2, 1 MgCl2, 26 NaHCO3, and 10 glucose, saturated with 95% 02 and 5% CO2 at 30-32° C. for recovery for at least 1 hour. During recording, slices were kept in a recording chamber with continuous perfusion of ACSF. CNQX (50 μM, Tocris) was used to block sEPSC. Patch recordings were done by using IR-DIC visualization techniques with an Olympus BX51WI upright microscope with a ×60 water-immersion lens. Patch clamp recording method was same with that of recording in cultured cell.

iENs = test: sEPSC recording from iENs; type: cell-based, human; conditions: CNQX 20 μM; 21 dpt
Procedure: as §1, with “Bicuculline (20 μM, Tocris) and CNQX (50 μM, Tocris) were used to block inhibitory or excitatory synaptic responses, respectively.” left out, “(Synaptosoft). Voltage clamp was used for recording I/V curve of Na/K current using a protocol of increasing holding potential 10 mV for each step from −80 mV.” for “(Synaptosoft).”

iGNs = test: Whole cell patch clamp of iGNs: GABA-evoked responses and spontaneous IPSCs; type: cell-based, human; conditions: 1 mM, 100 ms
Procedure: as §1, with “Neurons were held at −70 mV except otherwise indicated or at required currents using an Axon MultiClamp 700B amplifier (Axon Instruments). Signal was sampled at 40 kHz and filtered at 2 kHz (Digidata 1440A, Molecular Devices).” left out
For chemical GABA evoked IPSC recording, tip of glass pipettes filled with freshly made GABA (1 mM, Sigma) was put approximately 100 μm away from soma along dendrites of recorded neurons. […]

iGN expressing ChETA = type: cell-based, human

Compound: N#Cc1cc2[nH]c(=O)c(=O)[nH]c2cc1[N+](=O)[O-] [CNQX]
- sEPSCs (fast-rise, fast-decay PSCs) in iGNs of mixed culture, block (mixed iENs/iGNs): completely abolished the remaining fast-rise, fast-decay PSCs; also recorded: blocked
- spontaneous EPSCs (sEPSCs) in transplanted iGNs, block [1]: abolished; also recorded: blocked
- sEPSCs in iENs, block (iENs): completely abolished sEPSCs

Compound: NCCCC(=O)O [GABA, gamma-aminobutyric acid]
- induction of IPSCs by exogenous application (iGNs): triggered inhibitory postsynaptic currents

Compound: TTX
- light-evoked inward currents, block (iGN expressing ChETA): could not block these light-evoked currents

Reference: patent US20180072988A1, “GENERATION OF FUNCTIONAL CELLS FROM STEM CELLS” (priority 2015, published 2018)
